Data from article PMC2830364 (Antiviral research, 2009).
Like-named read-outs stand apart in the source and are kept apart here.

Columns and labels:
Type in all cases: biochemical
[1] = target: T1, puromycin-sensitive aminopeptidase (APP-S) (Homo sapiens, UniProt P55786); assay: inhibition of purified recombinant APP-S hydrolysis of Ala-pNA/Val-pNA
[2] = target: T1, puromycin-sensitive aminopeptidase (APP-S)
[3] = target: T1, puromycin-sensitive aminopeptidase (APP-S); assay: chromogenic hydrolysis kinetics at […] nm with purified recombinant enzyme

T1 sequence (P55786 whole entry): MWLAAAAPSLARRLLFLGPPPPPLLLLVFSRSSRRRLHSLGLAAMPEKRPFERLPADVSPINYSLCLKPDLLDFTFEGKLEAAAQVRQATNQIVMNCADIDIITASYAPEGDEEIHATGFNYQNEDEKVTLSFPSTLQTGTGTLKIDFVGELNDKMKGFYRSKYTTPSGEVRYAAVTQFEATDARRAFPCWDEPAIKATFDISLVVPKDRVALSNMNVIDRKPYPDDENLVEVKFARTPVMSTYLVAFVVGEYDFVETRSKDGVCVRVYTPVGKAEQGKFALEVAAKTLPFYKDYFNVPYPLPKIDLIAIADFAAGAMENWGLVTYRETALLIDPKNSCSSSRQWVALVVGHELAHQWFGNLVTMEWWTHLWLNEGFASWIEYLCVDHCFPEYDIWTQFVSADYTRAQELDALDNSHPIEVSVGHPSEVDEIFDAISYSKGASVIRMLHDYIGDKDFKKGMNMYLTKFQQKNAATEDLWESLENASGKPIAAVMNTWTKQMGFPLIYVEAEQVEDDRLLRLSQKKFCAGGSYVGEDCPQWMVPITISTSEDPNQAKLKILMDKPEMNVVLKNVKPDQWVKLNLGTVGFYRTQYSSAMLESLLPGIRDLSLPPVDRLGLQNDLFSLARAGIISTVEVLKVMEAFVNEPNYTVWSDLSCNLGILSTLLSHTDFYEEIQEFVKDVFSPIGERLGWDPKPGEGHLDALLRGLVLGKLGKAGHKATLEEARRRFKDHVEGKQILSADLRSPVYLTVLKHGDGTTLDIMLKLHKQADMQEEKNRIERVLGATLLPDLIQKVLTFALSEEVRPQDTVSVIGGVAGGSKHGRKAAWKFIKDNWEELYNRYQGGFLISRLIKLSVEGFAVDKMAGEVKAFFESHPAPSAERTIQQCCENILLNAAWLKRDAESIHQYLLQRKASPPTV

| Km [3] | SMILES | other results |
| --- | --- | --- |
|  | CC(C)C[C@H](NC(=O)[C@@H](O)[C@H](N)Cc1ccccc1)C(=O)O [bestatin] | inhibition of purified recombinant APP-S hydrolysis of Ala-pNA/Val-pNA (405 nm) [1]: APP-S hydrolysis of the model substrates was completely inhibited by the addition of bestatin. |
|  | COC(=O)[C@H](CO[P@@]1(=O)COC(Cn2ccc(N)nc2=O)CO1)NC(=O)[C@@H](N)C(C)C (stereo partly drawn) [compound 2, Methyl (S)-2-((S)-2-Amino-3-methyl-butyrylamino)-3-[(S)-5-(4-amino-2-oxo-2H-pyrimidin-1-ylmethyl)-2-oxido-1,4,2-dioxaphosphinan-2-yloxy]propanoate] | Km [2]: 850 ± 330 µM |
| 280 ± 190 µM | CC(C)[C@H](N)C(=O)Nc1ccc([N+](=O)[O-])cc1 [Val-pNA] |  |
| 510 ± 140 µM | C[C@H](N)C(=O)Nc1ccc([N+](=O)[O-])cc1 [Ala-pNA] |  |
